Assay results reported in paper PMC8765781, “A platform of assays for the discovery of anti-Zika small-molecules with activity in a 3D-bioprinted outer-blood-retina model” (PLoS ONE, 2022).
pIC50: −log10 of the molar value. Where two headings read alike, the source gives them in different places.

What was measured:
[1] = tested on: ZIKV-RLuc (Cambodian strain FSS13025); test: microbe, parasite or virus in culture; format: cell-based, Zika virus; details: for pIC50: read-out: Rluc-ZIKV (ZIKV Antiviral Assays), IC50
[2] = tested on: wild-type ZIKV (Ugandan MR766 strain) in Vero cells; test: ZIKV cytopathic effect (CPE) inhibition qHTS assay, CellTiter-Glo readout; format: cell-based, Zika virus; details: for pIC50: read-out: ZIKV-infection (CPE, ZIKV Antiviral Assays), IC50
[3] = tested on: Vero cells
[4] = tested on: caspase-3 activity induced by ZIKV in Vero cells; test: cells; format: cell-based; details: read-out: Caspase 3 (ZIKV Antiviral Assays), IC50
[5] = tested on: ZIKV-mCherry (Cambodian strain FSS13025); test: microbe, parasite or virus in culture; format: cell-based, Zika virus
[6] = in vitro; details: African green monkey
[7] = Zika virus, Vero, read-out: Log AC50 (M) (converted)
[8] = Zika virus, Vero, from Hill fit of the response curve, 50% of maximum activity response, 194 cherry-picked compounds, protocol name not given, read-out: AC50
[9] = Zika virus, Vero, potency in log units (Molar) from Hill fit of the response curve, 194 cherry-picked compounds, protocol name not given, read-out: Log AC50 (converted)
[10] = curve class v2 (Inglese et al. 2006)
[11] = difference between neutral response and maximum compound response
[12] = Zika virus, ZIKV-infected Vero cells, 48 hr, unit inferred
[13] = Zika virus, Vero cells, wild-type ZIKV MOI 1, 48 hr, unit inferred

Row | SMILES | Efficacy [2] | AC50 ([2]; Zika virus, Vero) [M] | AC50 [2, 8] [M] | AC50 [2, 9] [M] | CC-v2 (curve class classification of the dose response curve) [2, 10] | Efficacy [2, 11] | pIC50 ([1]; Zika virus, Vero, 48 h) | CC-v2 (curve class of the dose response curve) [5] | Efficacy (difference between neutral response and maximum compound response) [5] | Max Resp (difference between neutral response and response at highest compound concentration) [5] | AC50 ([5]; Zika virus, Vero) [M] | AC50 [5, 7] [M] | pIC50 ([4]; Zika virus, Vero, 48 h) | pIC50 ([2]; Zika virus, Vero, 48 h) | AC50 [2, 7] [M] | other results
1 | CC1=C(CO)C(=O)O[C@@H]([C@@H](C)[C@H]2CC[C@H]3[C@@H]4C[C@H]5O[C@]56[C@@H](O)C=CC(=O)[C@]6(C)[C@H]4CC[C@]23C)C1 [NCGC00180796-02] | -63.347 | 3.55e-05 |  |  |  |  |  |  |  |  |  |  |  |  |  | CC-v2 (curve class classification v2 of the dose response curve) [1]: -2.1; Efficacy (difference between neutral response and maximum compound response) [1]: -108.248; Max Resp (difference between neutral response and compound response for highest compound concentration) [1]: -100.116; AC50 ([1]; Zika virus, Vero): 1.02e-05 M; AC50 [1, 7]: 1.02e-05 M; Curve class [2]: -3; AC50 ([2]; Zika virus, Vero, read-out: Log AC50 (converted)): 3.55e-05 M; Emax ([2]; Zika virus, Vero, read-out: Max response): -65.4%; AC50 [3]: 10.2 µM; Log AC50 (M) [3]: -4.9908 M
2 | O=C1NC2CCCCN2C12CCN(CCCN1c3ccccc3CCc3ccc(Cl)cc31)CC2 (centres unmarked) [NCGC00183853-01] |  |  | 6.51e-05 | 6.51e-05 | -3 | -47.567 |  |  |  |  |  |  |  |  |  | CC-v2 (curve class classification v2 of the dose response curve) [1]: -2.1; Efficacy (difference between neutral response and maximum compound response) [1]: -99.983; Max Resp (difference between neutral response and compound response for highest compound concentration) [1]: -99.289; AC50 ([1]; Zika virus, Vero): 2.61e-05 M; AC50 [1, 7]: 2.61e-05 M; AC50 [3]: 26.1 µM; Log AC50 (M) [3]: -4.5827 M
3 | C[C@H]1CC[C@@]2(OC1)O[C@H]1CC3[C@@H]4CC[C@@H]5C[C@@H](O[C@@H]6O[C@H](CO)[C@@H](O[C@@H]7O[C@@H](C)[C@H](O)[C@@H](O)[C@H]7O)[C@H](O)[C@H]6O[C@@H]6O[C@H](CO)[C@@H](O)[C@H](O)[C@H]6O)CC[C@]5(C)C4CC[C@]3(C)[C@H]1[C@@H]2C (some centres unmarked) [NCGC00347372-02, Asparanin B] |  |  | 1.1e-05 | 1.1e-05 | -2.2 | -63.699 | 5.21 | -1.2 | -51.182 | -100.305 | 1.27e-06 | 1.27e-06 |  |  |  | pIC50 [4, 12]: 5.16; pIC50 [2, 13]: 4.96; CC50 at 48 h [6]: > 50 µM
4 | CC1(C)CC2C3=CCC4[C@@]5(C)CC[C@H](OC6OCC(O)C(OC7OC(CO)C(O)C(O)C7O)C6O)C(C)(C)C5CC[C@@]4(C)[C@]3(C)C[C@H](O)[C@@]2(CO)[C@H](OC(=O)c2ccccc2)C1 (some centres unmarked) [NCGC00347604-02] |  |  | 7.78e-06 | 7.78e-06 | -3 | -34.889 | 5.26 | -1.4 | -68.489 | -100.29 |  |  |  |  |  | pIC50 [4, 12]: < 4.32; pIC50 [2, 13]: 5.11; CC50 [6]: > 50 µM
5 | CC1(C)CC[C@]2(C(=O)O)CC[C@]3(C)C(=CCC4[C@@]5(C)CCC(O[C@@H]6OC[C@H](O)[C@H](O)[C@H]6O[C@@H]6O[C@H](CO)[C@@H](O)[C@H](O)[C@H]6O)[C@@](C)(CO)C5CC[C@]43C)[C@@H]2C1 (some centres unmarked) [NCGC00347737-02] | -61.863 | 2.43e-07 |  |  |  |  | 4.91 |  |  |  |  |  | 7.70 | 6.62 | 2.43e-07 | CC50 at 48 h ([6]; Vero cells): > 50 µM
6 | CC(=O)O[C@@H]1[C@@H](O)[C@H]2O[C@@H]3C=C(C)[C@@H](O)C[C@]3(CO)[C@]1(C)[C@]21CO1 [NCGC00380400-01, NT-2 toxin] | -41.676 |  |  |  |  |  |  | -1.2 | -59.911 | -100.305 |  |  |  |  |  | pIC50 [1]: 6.19; pIC50 [4]: 5.64; Log AC50 (M) [5]: -7.0328 M; AC50 ([5]; read-out: AC50): 9.27e-08 M; CC-v2 (curve class classification of the dose response curve) [2]: -1.2; Log AC50 (M) [2]: -5.594 M; Max Resp [2]: 6.747; AC50 ([2]; read-out: AC50): 2.55e-06 M; pIC50 [2]: 5.59
7 | C/C=C(\C)C(=O)O[C@H]1[C@H](OC(C)=O)[C@]2(CO)[C@H](O)[C@H](O)[C@]3(C)C(=CCC4[C@@]5(C)CC[C@H](O[C@@H]6O[C@H](C(=O)O)[C@@H](O)[C@H](O[C@@H]7OC[C@H](O)[C@H](O[C@@H]8OC[C@H](O)[C@H](O)[C@H]8O)[C@H]7O)[C@H]6O[C@@H]6O[C@H](CO)[C@@H](O)[C@H](O)[C@H]6O)C(C)(C)C5CC[C@]43C)[C@@H]2CC1(C)C (some centres unmarked) [NCGC00381072-01] | -30.676 | 8.71e-06 |  |  |  |  | 5.35 | -2.2 | -56.385 | -100.02 | 5.66e-06 | 5.66e-06 | 5.60 | 5.06 | 8.71e-06 | CC50 [6]: > 50 µM
8 | CC1=CC[C@]2(C(=O)O[C@@H]3O[C@H](CO[C@@H]4O[C@H](CO)[C@@H](O[C@@H]5O[C@@H](C)[C@H](O)[C@@H](O)[C@H]5O)[C@H](O)[C@H]4O)[C@@H](O)[C@H](O)[C@H]3O)CC[C@]3(C)C(CCC4[C@@]5(C)C[C@@H](O)[C@H](O)[C@@](C)(CO)C5CC[C@]43C)C2C1C (some centres unmarked) [NCGC00381125-01] | -73.731 | 6.18e-06 |  |  |  |  | 8.52 | -1.4 | -51.276 | -44.108 |  |  | 8.00 | 5.21 | 6.18e-06 | CC-v2 (curve class classification of the dose response curve) [2]: -3; CC50 at 48 h [6]: > 50 µM
9 | CC(=O)OCC1OC(OC2COC(OC3COC(OC4C(OC5C(CO)OC(OC6CCC7(C)C(CCC8(C)C7CC=C7C9CC(C)(C)CCC9(C(=O)OC9OC(CO)C(O)C(O)C9OC9OCC(OC%10OCC(O)(CO)C%10O)C(O)C9O)C(O)CC78C)C6(C)C)C(O)C5O)OCC(O)C4O)C(O)C3O)C(O)C2O)C(OC(=O)/C=C/c2ccccc2)C(O)C1OC(C)=O (centres unmarked) [NCGC00381294-01] |  |  | 5.62e-06 | 5.62e-06 | -2.2 | -55.683 | 5.80 | -1.3 | -53.243 | -100.305 | 1.16e-06 | 1.16e-06 |  |  |  | pIC50 [4, 12]: 6.70; pIC50 [2, 13]: 5.25; CC50 [6]: > 50 µM
10 | CC(=O)O[C@@H]1C[C@]2(C)[C@@]3(CCC4[C@@]5(C)CC[C@H](O[C@@H]6O[C@H](C(=O)O)[C@@H](O)[C@H](OC7OC(CO)C(O)C(O)[C@H]7O[C@@H]7O[C@@H](C)[C@H](O)[C@@H](O)[C@H]7O[C@@H]7OC[C@](O)(CO)[C@H]7O)[C@H]6OC6OC(CO)C(O)C(O)C6O)C(C)(C)C5CC[C@]42C)OC[C@@]12CCC(C)(C)CC23 (some centres unmarked) [NCGC00381303-01] | -19.952 | 2.75e-06 |  |  |  |  | 5.75 | -1.2 | -57.722 | -99.519 | 3.18e-06 | 3.18e-06 | 5.35 | 5.56 | 2.75e-06 | CC50 at 48 h ([6]; Vero cells): > 50 µM
11 | C/C=C(/C)C(=O)O[C@H]1[C@@H]2[C@H](C)C(=O)O[C@@H]2C[C@@H](C)[C@@H]2C=CC(=O)[C@]21C [NCGC00385048-01] | -20.801 |  |  |  |  |  | 4.74 |  |  |  |  |  | 6.19 |  |  | CC50 at 48 h [6]: > 50 µM
